According to ChEMBL document CHEMBL1149139, “Azasugar-based MMP/ADAM inhibitors as antipsoriatic agents” (J Med Chem, 2004):

Columns and labels:
[1] = biological target: T1, Disintegrin and metalloproteinase domain-containing protein 17 (Homo sapiens, UniProt P78536); assay: Inhibition of heparin-binding HB-EGF shedding
Stromelysin-1 = Stromelysin-1 (Homo sapiens, UniProt P08254); assay: Inhibition of human recombinant matrix metalloprotease 3
[2] = biological target: T1, Disintegrin and metalloproteinase domain-containing protein 17; assay: Inhibition of human tumor necrosis factor alpha converting enzyme
Interstitial collagenase = biological target: T2, Interstitial collagenase (Homo sapiens, UniProt P03956); assay: Inhibition of human recombinant matrix metalloprotease 1
T2 sequence (P03956 whole entry): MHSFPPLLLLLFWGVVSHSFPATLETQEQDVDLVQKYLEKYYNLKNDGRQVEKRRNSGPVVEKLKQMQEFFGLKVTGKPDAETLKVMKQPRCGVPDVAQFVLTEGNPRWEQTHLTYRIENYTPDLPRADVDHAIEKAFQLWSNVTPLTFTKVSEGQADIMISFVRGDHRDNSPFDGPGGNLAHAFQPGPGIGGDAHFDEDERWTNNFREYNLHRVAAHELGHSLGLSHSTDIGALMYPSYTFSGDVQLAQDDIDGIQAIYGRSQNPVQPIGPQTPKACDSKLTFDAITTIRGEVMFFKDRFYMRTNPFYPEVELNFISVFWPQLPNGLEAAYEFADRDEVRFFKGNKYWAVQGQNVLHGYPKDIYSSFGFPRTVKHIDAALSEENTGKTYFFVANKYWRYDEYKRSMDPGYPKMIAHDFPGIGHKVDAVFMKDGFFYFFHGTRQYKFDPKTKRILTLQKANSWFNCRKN

[3] = biological target: Matrix metalloproteinase-9 (Homo sapiens, UniProt P14780); assay: Inhibition of human recombinant matrix metalloprotease 9
Chain of Matrix metalloproteinase-9 (P14780 whole entry): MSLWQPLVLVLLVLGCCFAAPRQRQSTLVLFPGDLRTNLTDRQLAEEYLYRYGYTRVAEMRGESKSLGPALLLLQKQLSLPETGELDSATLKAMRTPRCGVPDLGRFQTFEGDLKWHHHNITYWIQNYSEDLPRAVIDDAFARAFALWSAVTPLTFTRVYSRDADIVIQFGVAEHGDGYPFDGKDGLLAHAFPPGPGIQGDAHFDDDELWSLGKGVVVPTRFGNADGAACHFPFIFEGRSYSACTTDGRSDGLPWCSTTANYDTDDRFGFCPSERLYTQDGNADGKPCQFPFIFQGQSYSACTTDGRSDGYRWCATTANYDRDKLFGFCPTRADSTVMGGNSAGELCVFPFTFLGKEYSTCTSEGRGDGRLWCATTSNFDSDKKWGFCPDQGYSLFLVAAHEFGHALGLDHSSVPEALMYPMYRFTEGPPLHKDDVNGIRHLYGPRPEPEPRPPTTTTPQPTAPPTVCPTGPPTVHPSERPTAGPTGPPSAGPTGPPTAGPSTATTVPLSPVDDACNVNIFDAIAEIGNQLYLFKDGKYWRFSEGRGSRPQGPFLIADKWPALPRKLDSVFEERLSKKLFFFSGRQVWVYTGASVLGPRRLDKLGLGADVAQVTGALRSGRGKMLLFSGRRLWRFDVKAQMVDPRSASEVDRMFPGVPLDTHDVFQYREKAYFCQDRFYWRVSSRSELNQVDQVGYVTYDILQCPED

T1 sequence (P78536 whole entry, the tested form may be a part): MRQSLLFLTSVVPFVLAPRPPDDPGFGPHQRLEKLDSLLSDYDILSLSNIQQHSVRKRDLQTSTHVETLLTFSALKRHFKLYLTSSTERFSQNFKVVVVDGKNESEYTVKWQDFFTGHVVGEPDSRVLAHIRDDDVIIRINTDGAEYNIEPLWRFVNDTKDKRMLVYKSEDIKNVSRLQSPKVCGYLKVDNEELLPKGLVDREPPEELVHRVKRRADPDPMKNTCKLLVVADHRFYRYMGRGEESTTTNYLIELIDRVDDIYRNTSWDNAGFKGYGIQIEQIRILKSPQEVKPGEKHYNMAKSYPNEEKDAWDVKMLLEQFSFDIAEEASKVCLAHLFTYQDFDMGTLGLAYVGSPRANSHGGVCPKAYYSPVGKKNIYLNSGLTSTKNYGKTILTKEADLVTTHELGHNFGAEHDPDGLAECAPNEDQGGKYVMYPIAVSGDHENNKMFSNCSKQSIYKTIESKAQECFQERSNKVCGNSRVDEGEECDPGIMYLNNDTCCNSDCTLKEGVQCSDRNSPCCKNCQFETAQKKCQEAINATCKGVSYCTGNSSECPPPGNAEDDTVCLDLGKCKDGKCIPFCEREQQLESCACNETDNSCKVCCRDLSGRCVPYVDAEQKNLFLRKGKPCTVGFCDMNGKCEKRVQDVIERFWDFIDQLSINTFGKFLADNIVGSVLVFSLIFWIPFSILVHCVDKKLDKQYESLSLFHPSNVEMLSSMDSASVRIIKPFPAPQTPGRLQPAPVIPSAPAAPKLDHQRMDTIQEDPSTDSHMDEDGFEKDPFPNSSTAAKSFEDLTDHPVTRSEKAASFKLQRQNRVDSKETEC
Chain of Stromelysin-1 (P08254 whole entry, the tested form may be a part): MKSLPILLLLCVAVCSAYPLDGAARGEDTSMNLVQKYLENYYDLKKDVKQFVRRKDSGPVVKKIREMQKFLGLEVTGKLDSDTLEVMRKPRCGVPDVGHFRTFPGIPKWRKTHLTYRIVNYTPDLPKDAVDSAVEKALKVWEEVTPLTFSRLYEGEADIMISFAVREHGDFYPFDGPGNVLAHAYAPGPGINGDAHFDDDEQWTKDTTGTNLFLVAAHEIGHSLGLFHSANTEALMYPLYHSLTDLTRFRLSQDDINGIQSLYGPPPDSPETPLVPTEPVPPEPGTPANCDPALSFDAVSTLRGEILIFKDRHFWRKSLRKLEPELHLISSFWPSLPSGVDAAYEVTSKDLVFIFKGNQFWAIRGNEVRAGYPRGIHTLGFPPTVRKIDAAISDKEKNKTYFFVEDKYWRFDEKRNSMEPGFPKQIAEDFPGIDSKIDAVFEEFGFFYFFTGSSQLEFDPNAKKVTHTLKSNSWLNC

Compound O=C(NO)[C@H]1[C@@H](O)[C@H](O)[C@H](O)CN1S(=O)(=O)c1ccc(Oc2ccccc2)cc1 has an IC50 [1] of 0.34 µM, a Ki (Stromelysin-1) of 0.00035 µM and a Ki [2] of 0.0062 µM. For the same compound, the Ki (Interstitial collagenase) was 0.0053 µM.

COc1ccc(S(=O)(=O)N2C[C@@H](O)[C@@H](O)[C@H](O)[C@@H]2C(=O)NO)cc1 gave an IC50 [1] of 0.45 µM, a Ki [2] of 0.015 µM and a Ki (Interstitial collagenase) of 0.026 µM.

Compound O=C(NO)[C@H]1[C@@H](O)[C@H](O)[C@H](O)CN1S(=O)(=O)c1ccc(OCc2ccccc2)cc1 has an IC50 [1] of 0.084 µM, a Ki (Stromelysin-1) of 0.0021 µM and a Ki [3] of 0.0074 µM. The Ki [2] was 0.0017 µM and the Ki (Interstitial collagenase) was > 0.85 µM.

With O=C(NO)[C@H]1[C@@H](O)[C@H](O)[C@H](O)CN1S(=O)(=O)c1ccc(-c2ccccc2)cc1 the IC50 [1] was 21 µM, the Ki (Stromelysin-1) was 0.05 µM and the Ki [3] was 0.047 µM. For the same compound, the Ki [2] was 0.021 µM and the Ki (Interstitial collagenase) was 0.162 µM.

O=C(NO)[C@H]1[C@@H](O)[C@H](O)[C@@H](O)CN1S(=O)(=O)c1ccc(Oc2ccccc2)cc1 gave an IC50 [1] of 0.35 µM.
